Molecular target: hHDAC6 (Homo sapiens (Human), UniProt Q9UBN7)
Assay: HDAC6 inhibition protocol
Details: read-out: IC50 (nM) of enzyme activity HDAC6; hHDAC6 1.20 nM, Acetylated Peptide A 2 μM, 1 hour at RT
Description: After enzymatic reactions, reaction was stopped by adding 5 μl of 10 μM solution of a known inhibitor. The fluorescent signal of substrate and product was measured by means of microfluidics mobility assay in a EZ Reader II equipment. The percentage of conversion of substrate into product was calculated by the equipment software based on the area of the peaks.
The percentage of conversion data were analyzed using the computer software, Graphpad Prism. In the absence of the compound, the conversion (Ct) in each data set was defined as 100% activity. In the absence of HDAC, the conversion (Cb) in each data set was defined as 0% activity. The percent activity in the presence of each compound was calculated according to the following equation: % inhibition=(Ct−C)/(Ct−Cb), where C=the percentage of conversion in the presence of the compound.
The values of % inhibition versus a series of compound concentrations were then plotted using non-linear regression analysis of Sigmoidal dose-response curve generated with the equation Y=B+(T−B)/1+10((Log EC50−X)×Hill Slope), where Y=percent inhibition, B=minimum percent inhibition, T=maximum percent inhibition, X=logarithm of compound and Hill Slope=slope factor or Hill coefficient. The IC50 value was determined by the concentration causing a half-maximal percent activity.
The buffer assay used in the inhibition hHDAC6 assay is: Hepes 50 mM, KCl 100 mM, Tween 20 0.001%, BSA 0.01%; pH=7.4.

Sequence of hHDAC6 (Q9UBN7 whole entry): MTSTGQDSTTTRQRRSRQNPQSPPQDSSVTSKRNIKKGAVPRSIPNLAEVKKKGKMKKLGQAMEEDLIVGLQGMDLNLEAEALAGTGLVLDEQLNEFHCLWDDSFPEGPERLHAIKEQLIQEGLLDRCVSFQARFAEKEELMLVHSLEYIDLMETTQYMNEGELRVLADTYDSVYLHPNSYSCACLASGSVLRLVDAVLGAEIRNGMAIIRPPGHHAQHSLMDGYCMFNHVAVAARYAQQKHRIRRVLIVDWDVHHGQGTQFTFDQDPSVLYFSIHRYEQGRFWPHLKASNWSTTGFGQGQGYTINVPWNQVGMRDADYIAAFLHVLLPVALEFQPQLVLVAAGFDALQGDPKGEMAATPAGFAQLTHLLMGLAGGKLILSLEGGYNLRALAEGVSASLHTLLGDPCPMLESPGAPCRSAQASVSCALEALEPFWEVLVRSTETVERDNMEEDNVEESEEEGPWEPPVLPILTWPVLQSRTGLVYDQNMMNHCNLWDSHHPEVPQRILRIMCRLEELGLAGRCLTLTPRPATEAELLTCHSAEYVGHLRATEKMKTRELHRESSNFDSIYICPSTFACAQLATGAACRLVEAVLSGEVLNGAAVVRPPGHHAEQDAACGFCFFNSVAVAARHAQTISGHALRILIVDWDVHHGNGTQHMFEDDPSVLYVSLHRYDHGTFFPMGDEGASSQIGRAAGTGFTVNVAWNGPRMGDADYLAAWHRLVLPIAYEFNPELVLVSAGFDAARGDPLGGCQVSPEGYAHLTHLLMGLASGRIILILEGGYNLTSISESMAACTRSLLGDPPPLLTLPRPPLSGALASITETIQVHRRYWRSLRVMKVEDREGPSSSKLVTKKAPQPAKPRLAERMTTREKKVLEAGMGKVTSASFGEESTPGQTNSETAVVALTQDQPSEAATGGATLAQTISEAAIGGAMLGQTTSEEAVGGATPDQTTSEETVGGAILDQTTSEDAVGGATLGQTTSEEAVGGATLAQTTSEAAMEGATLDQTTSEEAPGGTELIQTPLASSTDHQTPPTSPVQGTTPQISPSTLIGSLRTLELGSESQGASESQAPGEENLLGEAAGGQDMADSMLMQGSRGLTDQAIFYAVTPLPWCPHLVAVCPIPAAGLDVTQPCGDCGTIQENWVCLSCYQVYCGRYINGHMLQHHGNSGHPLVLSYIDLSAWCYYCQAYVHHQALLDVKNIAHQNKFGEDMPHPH

Row | Compound | IC50 [nM]
1 | Cc1cc2ncn(Cc3ccc(-c4nnc(C(F)F)o4)cn3)c2cc1C [Example 61, 2-(difluoromethyl)-5-(6-((5,6-dimethyl-1H-benzo[d]imidazol-1-yl)methyl)pyridin-3-yl)-1,3,4-oxadiazole] | 187
2 | Cc1cccc2nnn(Cc3ccc(-c4nnc(C(F)F)o4)cc3)c12 [Example 12] | 190
3 | FC(F)c1nnc(-c2ccc(Cn3cc(-c4ccccc4)nn3)cn2)o1 [Example 42, 2-(difluoromethyl)-5-(5-((4-phenyl-1H-1,2,3-triazol-1-yl)methyl)pyridin-2-yl)-1,3,4-oxadiazole] | 1990
4 | Cc1c(-c2ccccc2)nnn1Cc1ccc(-c2nnc(C(F)F)o2)cc1 [Example 39, 2-(difluoromethyl)-5-(4-((5-methyl-4-phenyl-1H-1,2,3-triazol-1-yl)methyl)phenyl)-1,3,4-oxadiazole] | 366
5 | FC(F)c1nnc(-c2ccc(Cn3cc(-c4cccnc4)nn3)cc2)o1 [Example 34, 2-(difluoromethyl)-5-(4-((4-(pyridin-3-yl)-1H-1,2,3-triazol-1-yl)methyl)phenyl)-1,3,4-oxadiazole] | 202
6 | Fc1cc(-c2cn(Cc3ccc(-c4nnc(C(F)F)o4)cn3)nn2)cc(F)c1F [Example 57, 2-(difluoromethyl)-5-(6-((4-(3,4,5-trifluorophenyl)-1H-1,2,3-triazol-1-yl)methyl)pyridin-3-yl)-1,3,4-oxadiazole] | 149
7 | FC(F)c1nnc(-c2ccc(Cn3cc(-c4ccncc4)nn3)cc2)o1 [Example 33, 2-(difluoromethyl)-5-(4-((4-(pyridin-4-yl)-1H-1,2,3-triazol-1-yl)methyl)phenyl)-1,3,4-oxadiazole] | 188
8 | O=C1c2ccccc2C(=O)N1Cc1ccc(-c2nnc(C(F)F)o2)cc1 [Example 16, 2-(4-(5-(difluoromethyl)-1,3,4-oxadiazol-2-yl)benzyl)isoindoline-1,3-dione] | 258
9 | CC(C)(C)c1cn(Cc2ccc(-c3nnc(C(F)F)o3)cc2)nn1 [Example 31, 2-(4-((4-(tert-butyl)-1H-1,2,3-triazol-1-yl)methyl)phenyl)-5-(difluoromethyl)-1,3,4-oxadiazole] | 273

Now those with a lower IC50, led by results:

Row | IC50 [nM] | Compound
10 | 129 | FC(F)c1nnc(-c2ccc(Cn3nnc4ccc(Cl)cc43)cc2)o1 [Example 13, 2-(4-((6-chloro-1H-benzo[d][1,2,3]triazol-1-yl)methyl)phenyl)-5-(difluoromethyl)-1,3,4-oxadiazole]
11 | 95.6 | FC(F)c1nnc(-c2ccc(Cn3cc(-c4ccc(Cl)cc4)nn3)cc2)o1 [Example 29, 2-(4-((4-(4-chlorophenyl)-1H-1,2,3-triazol-1-yl)methyl)phenyl)-5-(difluoromethyl)-1,3,4-oxadiazole]
12 | 85.1 | Cc1cc2nnn(Cc3ccc(-c4nnc(C(F)F)o4)cn3)c2cc1C [Example 59, 2-(difluoromethyl)-5-(6-((5,6-dimethyl-1H-benzo[d][1,2,3]triazol-1-yl)methyl)pyridin-3-yl)-1,3,4-oxadiazole]
13 | 81.5 | FC(F)c1nnc(-c2ccc(Cn3nnc(-c4ccccc4Cl)c3Cl)nc2)o1 [Example 53, 2-(6-((5-chloro-4-(2-chlorophenyl)-1H-1,2,3-triazol-1-yl)methyl)pyridin-3-yl)-5-(difluoromethyl)-1,3,4-oxadiazole]
14 | 48.4 | FC(F)c1nnc(-c2ccc(Cn3nnc(-c4ccccc4)c3Cl)nc2)o1 [Example 52, 2-(6-((5-chloro-4-phenyl-1H-1,2,3-triazol-1-yl)methyl)pyridin-3-yl)-5-(difluoromethyl)-1,3,4-oxadiazole]
15 | 48.3 | FC(F)c1nnc(-c2ccc(Cn3cnc4cc(Br)ccc43)nc2)o1 [Example 63, 2-(6-((5-bromo-1H-benzo[d]imidazol-1-yl)methyl)pyridin-3-yl)-5-(difluoromethyl)-1,3,4-oxadiazole]
16 | 25.7 | FC(F)c1nnc(-c2ccc(Cn3cc(-c4cc(Cl)cc(Cl)c4)nn3)nc2)o1 [Example 47, 2-(6-((4-(3,5-dichlorophenyl)-1H-1,2,3-triazol-1-yl)methyl)pyridin-3-yl)-5-(difluoromethyl)-1,3,4-oxadiazole]

From patent US12202823B2 (QUIMATRYX, S.L., priority 2019, dated 2025)
